These results are taken from patent US6812015B1, “Histidine protein-phosphatase” (Merck Patent Gesellschaft, priority 1999, dated 2004).

Where two headings read alike, the source gives them in different places.

One data set relates to histidine phosphatase. As to the kind of experiment: Reagents affecting histidine phosphatase activity (dephosphorylation of 32P-CheA). It is filed as biochemical, rabbit. The method, then: (§1) The activity of the soluble histidine phosphatase is determined from the dephosphorylation of ^32P-labelled histidine-phosphorylated protein (CheA) as substrate. CheA is a recombinant bacterial histidine autokinase (Bilwes A M, Alex L A, Crane B R, Simon M I (1999) Cell 96:131-141); the C-terminal kinase domain phosphorylates the N-terminal His48. […] Detection on the one hand via ammonium molybdate, and on the other hand by autoradiography (FIG. 2).
(§2) The substrate (10 μl of ^32P-CheA) is mixed with […] of assay buffer (100 mM triethanolamine/hydrochloric acid pH 8.0, 0.1% 2-mercaptoethanol, 0.02% sodium nitrite) and the enzyme solution. The reaction takes place at 37° C. in 30 min. […] After a centrifugation (5 min at 15,800 g), the supernatant is removed and measured in a scintillation counter.

For data set [1], the system named is histidine protein phosphatase. As to the kind of experiment: Hydrolysis of substrates by the novel histidine protein phosphatase (specificity). It counts as biochemical, rabbit. As for the experimental part: as §1, §2
Data set [2] concerns the target histidine protein phosphatase purified from rabbit liver (rabbit) (UniProt P83468). As to the kind of experiment: cell-based or functional assay.
Data set [3] is classed as physicochemical, rabbit. To be noted: in the crude homogenate and in the partially purified fractions.
Data set [4] has as its target 32P-labelled histidine-phosphorylated CheA (recombinant bacterial histidine autokinase).
The target in data set [5] is [gamma-32P] His-nucleoside diphosphate kinase.
The target of data set [6] is [gamma-32P] Ser/Thr-Casein.

Take `[Ca+2]` [Ca^2+]: the figures for the “Activity (%)” value with histidine phosphatase (reagent concentration 1 mM) and with histidine phosphatase (reagent concentration 10 mM) were 165% and 240%, respectively. On to `O=C(O)CN(CCOCCOCCN(CC(=O)O)CC(=O)O)CC(=O)O` [EGTA], for which the “Activity (%)” value in the data set on histidine phosphatase (reagent concentration 5 mM) was determined as 91%. Consider `[Mg+2]` [Mg^2+], for which the “Activity (%)” value with histidine phosphatase (reagent concentration 1 mM) is recorded as 142%; in the data set on histidine phosphatase (reagent concentration 10 mM), 226%. Turning to `[O]=[Mo](=[O])([O-])[O-]` [Molybdate], the “Activity (%)” value in the data set with histidine phosphatase (10 µM) is 71%. Turning to `C=C1[C@@H](O)[C@@H]2O[C@]3(CC[C@H](/C=C/[C@@H](C)[C@@H]4CC(C)=C[C@@]5(O[C@H](C[C@@](C)(O)C(=O)O)CC[C@H]5O)O4)O3)CC[C@H]2O[C@@H]1[C@@H](O)C[C@H](C)[C@H]1O[C@@]2(CCCCO2)CC[C@H]1C` [Okadaic acid], in the data set with histidine phosphatase (reagent concentration 10 μM), the “Activity (%)” value amounted to 108%. Further, the “Inhibition of histidine phosphatase activity” value in the data set with histidine phosphatase (text statement referring to Table 2) is on record as “not being inhibited”. `CO[C@H]([C@H](O)CC(=O)[C@@H](C)[C@@H](O)CC[C@@H](C)[C@@H]1O[C@]2(CC[C@@H](C)[C@H](CC[C@H](C)C(C)=O)O2)CC[C@@H]1C)[C@H](OC(=O)C[C@@H](O)C1=C(C)C(=O)OC1=O)C(C)C` [Tautomycin]: the “Activity (%)” value in the data set with histidine phosphatase (reagent concentration 0.5 nM) is 90%.

In the case of `[O]=[V]([O-])([O-])[O-]` [Vanadate], in the data set on histidine phosphatase, the “Inhibition of histidine phosphatase activity” value was “not being inhibited”. The “Activity (%)” value in the data set with histidine phosphatase (10 µM) is listed as 62%. Take `O=[N+]([O-])c1ccc(OP(=O)(O)O)cc1` [p-nitrophenyl phosphate]: the “Hydrolysis by the histidine phosphatase” value in data set [1] is given as “did not hydrolyze”. The molecule Inhibitor protein I1 showed an Activity (%) of histidine phosphatase with 1 nM reagent in data set [2] of 120%. With Microcystin, in the data set with histidine phosphatase (0.005 µM), the “Activity (%)” value was 110%.

B1: histidine protein phosphatase purified from rabbit liver (protein)
chain: AAAGLAQIPDVDIDSDGVFKYVLIRVHAAPPSEAPGGESKDIVRGYKWAEYHADIYDKVSGELQKKGHDCECLGGGRISHQSQDRKIHVYGYSMGYGRAQHSVSTEKIRAKYPDYEVTWADDGY
With B1, in data set [3], the storage stability result is “shows storage stability”. Further, the “Hydrolysis by the novel histidin protein phosphatase” value is recorded as “+” in data set [4], “-” in data set [5] and “-” in data set [6]. Moreover, in data set [4], the “histidine dephosphorylation of 32P-phosphorylated CheA” value was “The purified protein shows time-, temperature-, pH- and protein-dependent histidine dephosphorylation of the 32P-phosphorylated CheA”.
